Experimental data published in US9150632B2 (Indiana University Research and Technology Corporation, priority 2009, dated 2015).
Non-standard residues stand in square brackets, D forms with d. Residues, ends and D or L forms follow the SMILES beside them. No end group written: not given here. *: point of attachment. Palmitoyl = CCCCCCCCCCCCCCCC(=O)*; Aib = CC(C)(N)C(=O)O

Assays:
[1] = pH 7
[2] = Body weight, body composition and food intake in diet-induced obesity (DIO) mice; assay type: in vivo
Experimental: […] 6 mice per group with initial average body weight of 44 g were tested. Body weight, body composition, food intake, and blood glucose levels were determined periodically.
Body weight was measured before injection and at 1, 3, 5, and 7 days post-injection.
Changes in body weight of and food intake by the mice were measured 0, 1, 3, 5, 7, 8, 10, 12, and 14 days after injection. Blood glucose levels of the mice were monitored throughout the 14 days. Glucose tolerance tests were performed by injecting a 25% glucose in saline solution 1 hour or 24 hours after administration of the acylated or pegylated peptide and measuring blood glucose levels at −60, 0, 15, 30, 60, or 120 min after the glucose injection.
The acylated glucagon analogs were as follows:
C57BI/6 mice were obtained from Jackson Laboratories and fed a diabetogenic diet from Research Diets, a high sucrose diet with 58% kcal from fat. Mice were single or group-housed on a 12:12-h light-dark cycle at 22° C. with free access to food and water. All studies were approved by and performed according to the guidelines of the Institutional Animal Care and Use Committee of the University of Cincinnati.
Whole body composition (fat and lean mass) was measured using NMR technology (EchoMRI, Houston, Tex.).
The peptides were administered daily for two weeks to 11 groups of 8 C57Bl/6 mice by subcutaneous injection at a dose of 10 or 30 nmol/kg. […]

[3] = biological target: T1, glucagon receptor (Homo sapiens, UniProt P47871); test: Functional assay-cAMP synthesis, luciferase reporter in HEK293 cells, glucagon receptor; assay type: cell-based; details: for Glucagon Receptor % relative activity: activity relative to the native hormone at the indicated receptor; for EC50: cAMP induction, in vitro, as in Example 14
T1 construct: expressed in transfected cells; host or cells: HEK293
Experimental: (§1) Peptide absorbance readings were obtained from UV Absorbance measurements at 280 nm on a Genesys 6 Spectrophotometer (Thermo Electron Corporation). Beer's Law was used to calculate solution concentrations based on the number of tryptophan and tyrosine residues in each analog. At the end of the incubation, 100 μL LucLite luminescence substrate reagent was added to each well, the plate sealed and shaken, and placed into a Wallac Trilux luminescence counter for cAMP detection.
(§2) HEK293 cells were co-transfected with the GcgR or GLP-1R cDNAs and a luciferase reporter gene-linked to a cAMP response element (CRE). […] The plate was incubated for 10 min in the dark and light output was quantified on a MicroBeta1450 liquid scintillation counter (Perkin-Elmer, Wellesley, Mass.).

[4] = biological target: T2, GIP receptor (Homo sapiens, UniProt P48546); test: Functional assay-cAMP synthesis, luciferase reporter in HEK293 cells, GIP receptor; assay type: cell-based; details: for GIP Receptor % relative activity: activity relative to the native hormone at the indicated receptor; for EC50: cAMP induction, in vitro, as in Example 14
T2 construct: expressed in transfected cells; host or cells: HEK293
T2 sequence (P48546 22-466): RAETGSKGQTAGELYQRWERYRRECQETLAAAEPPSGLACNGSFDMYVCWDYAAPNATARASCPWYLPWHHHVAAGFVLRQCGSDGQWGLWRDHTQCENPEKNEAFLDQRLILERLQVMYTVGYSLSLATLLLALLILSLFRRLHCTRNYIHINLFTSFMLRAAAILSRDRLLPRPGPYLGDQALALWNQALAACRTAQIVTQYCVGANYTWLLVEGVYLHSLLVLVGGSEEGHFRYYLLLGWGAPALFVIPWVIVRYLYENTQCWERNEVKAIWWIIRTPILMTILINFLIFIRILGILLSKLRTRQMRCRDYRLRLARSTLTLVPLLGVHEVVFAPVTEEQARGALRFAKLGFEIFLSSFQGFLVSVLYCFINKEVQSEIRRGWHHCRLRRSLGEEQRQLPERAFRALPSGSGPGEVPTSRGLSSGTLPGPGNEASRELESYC

[5] = biological target: T3, GLP-1 receptor (Homo sapiens, UniProt P43220); details: for GLP-1 Receptor % relative activity: activity relative to the native hormone at the indicated receptor
Experimental: as §1, §2

[6] = biological target: T3, GLP-1 receptor; test: cell-based
Experimental: as §1, §2

[7] = Table 35, relative to the native hormone

T3 sequence (P43220 24-463, species assumed): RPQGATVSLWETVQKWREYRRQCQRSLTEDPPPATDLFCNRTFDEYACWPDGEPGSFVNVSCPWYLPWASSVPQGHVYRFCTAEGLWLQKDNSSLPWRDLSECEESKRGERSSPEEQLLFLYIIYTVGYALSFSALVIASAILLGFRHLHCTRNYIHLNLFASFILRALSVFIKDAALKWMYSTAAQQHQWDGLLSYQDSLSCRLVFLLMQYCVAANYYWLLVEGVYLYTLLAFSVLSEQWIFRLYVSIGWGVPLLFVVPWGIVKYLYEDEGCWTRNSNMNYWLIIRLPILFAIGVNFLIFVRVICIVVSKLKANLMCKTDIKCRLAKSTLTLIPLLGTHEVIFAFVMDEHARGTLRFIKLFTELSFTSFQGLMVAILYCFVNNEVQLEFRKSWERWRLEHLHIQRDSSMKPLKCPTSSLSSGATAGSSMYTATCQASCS
T1 sequence (P47871 26-477): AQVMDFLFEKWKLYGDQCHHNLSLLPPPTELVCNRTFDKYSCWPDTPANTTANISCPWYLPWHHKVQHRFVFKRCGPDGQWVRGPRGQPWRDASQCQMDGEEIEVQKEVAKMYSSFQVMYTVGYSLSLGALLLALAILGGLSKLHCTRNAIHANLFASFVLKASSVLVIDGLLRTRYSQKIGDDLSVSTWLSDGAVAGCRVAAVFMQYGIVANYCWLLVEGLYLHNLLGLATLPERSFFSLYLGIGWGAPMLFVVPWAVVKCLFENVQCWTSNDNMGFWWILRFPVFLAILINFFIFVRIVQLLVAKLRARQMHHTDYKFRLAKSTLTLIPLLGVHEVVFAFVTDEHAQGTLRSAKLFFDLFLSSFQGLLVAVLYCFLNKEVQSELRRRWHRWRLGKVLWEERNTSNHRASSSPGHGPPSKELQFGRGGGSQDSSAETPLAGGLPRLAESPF

Row | Compound | Glucagon Receptor % relative activity [3] [%] | GIP Receptor % relative activity [4] [%] | GLP-1 Receptor % relative activity [5] [%] | EC50 [6] [nM] | EC50 [3] [nM] | EC50 [4] [nM] | further results
1 | Glucagon, Cys17PEG5K: Glucagon Cys17(1-29) reacted with mPEG-Mal-5000 | – | – | – | – | – | – | Percent Soluble [1]: 94%
2 | Peptide U: SEQ ID NO: 1 with Glu16, Gln17, Ala18, Lys20, Glu21, Ile23, Cys24 with 20-kd pegylation, no AIB2, no lactam (HSQGTFTSDYSKYLDEQAAKEFIC(PEG 20 kDa)WLMNT) | – | – | – | – | – | – | body weight lowering ([2]; each day for one week at 50 nmol/kg s.c.): -13.71 ± 0.92 g
3 | HXQGTFTSDYSKYLDEQAAKEFICWLMNT-NH2 [Chimera-2-AIB^2 Cys^24-40 kD] | – | – | – | – | – | – | ability to lower body weight ([2]; i.p. 15 or 70 nmol/kg, 7 days post-injection): comparable ability to lower body weight
4 | CC[C@H](C)[C@H](NC(=O)[C@H](Cc1ccccc1)NC(=O)[C@H](CCC(=O)O)NC(=O)[C@H](CCCCN)NC(=O)[C@H](C)NC(=O)[C@H](C)NC(=O)[C@H](CCC(N)=O)NC(=O)C(C)(C)NC(=O)[C@H](CC(=O)O)NC(=O)[C@H](CC(C)C)NC(=O)[C@H](Cc1ccc(O)cc1)NC(=O)[C@H](CCCCN)NC(=O)[C@H](CO)NC(=O)[C@H](Cc1ccc(O)cc1)NC(=O)[C@H](CC(=O)O)NC(=O)[C@H](CO)NC(=O)[C@@H](NC(=O)[C@H](Cc1ccccc1)NC(=O)[C@@H](NC(=O)CNC(=O)[C@H](CCC(N)=O)NC(=O)C(C)(C)NC(=O)[C@@H](N)Cc1c[nH]cn1)[C@@H](C)O)[C@@H](C)O)C(=O)N[C@@H](CS)C(=O)N[C@@H](Cc1c[nH]c2ccccc12)C(=O)N[C@@H](CC(C)C)C(=O)N[C@@H](CCSC)C(=O)N[C@@H](CC(N)=O)C(=O)NCC(=O)NCC(=O)N1CCC[C@H]1C(=O)N[C@@H](CO)C(=O)N[C@@H](CO)C(=O)NCC(=O)N[C@@H](C)C(=O)N1CCC[C@H]1C(=O)N1CCC[C@H]1C(=O)N1CCC[C@H]1C(=O)N[C@@H](CO)C(=O)N[C@@H](CCCCN)C(N)=O [mt-348] (H-H[Aib]QGTFTSDYSKYLD[Aib]QAAKEFICWLMNGGPSSGAPPPSK-NH2) | 8.16 | 0.15 | 148.65 | 0.0037 | – | – | % Relative activity at the Receptor for Glucagon [3, 7]: 8.2%; % Relative activity at the Receptor for GIP [4, 7]: 0.2%; % Relative activity at the Receptor for GLP-1 [5, 7]: 149%
5 | CC[C@H](C)[C@H](NC(=O)[C@H](CO)NC(=O)[C@H](Cc1ccc(O)cc1)NC(=O)[C@H](CC(=O)O)NC(=O)[C@H](CO)NC(=O)[C@@H](NC(=O)[C@H](Cc1ccccc1)NC(=O)[C@@H](NC(=O)CNC(=O)[C@H](CCC(N)=O)NC(=O)C(C)(C)NC(=O)[C@@H](N)Cc1c[nH]cn1)[C@@H](C)O)[C@@H](C)O)C(=O)N[C@@H](Cc1ccc(O)cc1)C(=O)N[C@@H](CC(C)C)C(=O)N[C@@H](CC(=O)O)C(=O)NC(C)(C)C(=O)N[C@@H](CCC(N)=O)C(=O)N[C@@H](C)C(=O)N[C@@H](C)C(=O)N[C@@H](CCCCN)C(=O)N[C@@H](CCC(=O)O)C(=O)N[C@@H](Cc1ccccc1)C(=O)N[C@H](C(=O)N[C@@H](CC(N)=O)C(=O)N[C@@H](Cc1c[nH]c2ccccc12)C(=O)N[C@@H](CC(C)C)C(=O)N[C@@H](CCSC)C(=O)N[C@@H](CC(N)=O)C(=O)NCC(=O)NCC(=O)N1CCC[C@H]1C(=O)N[C@@H](CO)C(=O)N[C@@H](CO)C(=O)NCC(=O)N[C@@H](C)C(=O)N1CCC[C@H]1C(=O)N1CCC[C@H]1C(=O)N1CCC[C@H]1C(=O)N[C@@H](CO)C(=O)N[C@@H](CCCCN)C(N)=O)C(C)C [mt-361] (H-H[Aib]QGTFTSDYSIYLD[Aib]QAAKEFVNWLMNGGPSSGAPPPSK-NH2) | 3.61 | 0.29 | 226.35 | 0.0109 | 1.77 | 1.05 | –
6 | CCCCCCCCCCCCCCCC(=O)NCCCC[C@H](NC(=O)[C@H](CO)NC(=O)[C@@H]1CCCN1C(=O)[C@@H]1CCCN1C(=O)[C@@H]1CCCN1C(=O)[C@H](C)NC(=O)CNC(=O)[C@H](CO)NC(=O)[C@H](CO)NC(=O)[C@@H]1CCCN1C(=O)CNC(=O)CNC(=O)[C@H](CC(N)=O)NC(=O)[C@H](CCSC)NC(=O)[C@H](CC(C)C)NC(=O)[C@H](Cc1c[nH]c2ccccc12)NC(=O)[C@H](CC(N)=O)NC(=O)[C@@H](NC(=O)[C@H](Cc1ccccc1)NC(=O)[C@H](CCC(=O)O)NC(=O)[C@H](CCCCN)NC(=O)[C@H](C)NC(=O)[C@H](C)NC(=O)[C@H](CCC(N)=O)NC(=O)C(C)(C)NC(=O)[C@H](CC(=O)O)NC(=O)[C@H](CC(C)C)NC(=O)[C@H](Cc1ccc(O)cc1)NC(=O)[C@@H](NC(=O)[C@H](CO)NC(=O)[C@H](Cc1ccc(O)cc1)NC(=O)[C@H](CC(=O)O)NC(=O)[C@H](CO)NC(=O)[C@@H](NC(=O)[C@H](Cc1ccccc1)NC(=O)[C@@H](NC(=O)CNC(=O)[C@H](CCC(N)=O)NC(=O)C(C)(C)NC(=O)[C@@H](N)Cc1c[nH]cn1)[C@@H](C)O)[C@@H](C)O)[C@@H](C)CC)C(C)C)C(N)=O [mt-362] (H-H[Aib]QGTFTSDYSIYLD[Aib]QAAKEFVNWLMNGGPSSGAPPPSK(Palmitoyl)-NH2; N-terminus assumed) | 83.17 | 3.95 | 240.96 | 0.102 | 0.0768 | 0.0782 | agonist activity at the GIP receptor ([4]; text on Table 34): exceptionally potent activity
